Some results are limits rather than exact numbers.

The target of assay [1] is T1, Sodium channel alpha subunits; brain (Types I, II, III) (Homo sapiens, UniProt P35498+Q99250+Q9NY46). The note with it: Cavia porcellus; Cerebral cortex; at 100 µM.
For assay [2], the target named is T1, Sodium channel alpha subunits; brain (Types I, II, III). The note with it: Cavia porcellus; Cerebral cortex; at 10 µM.
Assay [3] has the same target. As to the kind of experiment: Inhibition of binding of Batrachotoxinin [3H]BTX-B to high affinity sites on voltage dependent sodium channels in a vesicular preparation from guinea pig cerebral cortex. The assay is classed as tissue-based, Cavia porcellus.

T1 sequence (Q99250 whole entry, looked up, other chains not shown): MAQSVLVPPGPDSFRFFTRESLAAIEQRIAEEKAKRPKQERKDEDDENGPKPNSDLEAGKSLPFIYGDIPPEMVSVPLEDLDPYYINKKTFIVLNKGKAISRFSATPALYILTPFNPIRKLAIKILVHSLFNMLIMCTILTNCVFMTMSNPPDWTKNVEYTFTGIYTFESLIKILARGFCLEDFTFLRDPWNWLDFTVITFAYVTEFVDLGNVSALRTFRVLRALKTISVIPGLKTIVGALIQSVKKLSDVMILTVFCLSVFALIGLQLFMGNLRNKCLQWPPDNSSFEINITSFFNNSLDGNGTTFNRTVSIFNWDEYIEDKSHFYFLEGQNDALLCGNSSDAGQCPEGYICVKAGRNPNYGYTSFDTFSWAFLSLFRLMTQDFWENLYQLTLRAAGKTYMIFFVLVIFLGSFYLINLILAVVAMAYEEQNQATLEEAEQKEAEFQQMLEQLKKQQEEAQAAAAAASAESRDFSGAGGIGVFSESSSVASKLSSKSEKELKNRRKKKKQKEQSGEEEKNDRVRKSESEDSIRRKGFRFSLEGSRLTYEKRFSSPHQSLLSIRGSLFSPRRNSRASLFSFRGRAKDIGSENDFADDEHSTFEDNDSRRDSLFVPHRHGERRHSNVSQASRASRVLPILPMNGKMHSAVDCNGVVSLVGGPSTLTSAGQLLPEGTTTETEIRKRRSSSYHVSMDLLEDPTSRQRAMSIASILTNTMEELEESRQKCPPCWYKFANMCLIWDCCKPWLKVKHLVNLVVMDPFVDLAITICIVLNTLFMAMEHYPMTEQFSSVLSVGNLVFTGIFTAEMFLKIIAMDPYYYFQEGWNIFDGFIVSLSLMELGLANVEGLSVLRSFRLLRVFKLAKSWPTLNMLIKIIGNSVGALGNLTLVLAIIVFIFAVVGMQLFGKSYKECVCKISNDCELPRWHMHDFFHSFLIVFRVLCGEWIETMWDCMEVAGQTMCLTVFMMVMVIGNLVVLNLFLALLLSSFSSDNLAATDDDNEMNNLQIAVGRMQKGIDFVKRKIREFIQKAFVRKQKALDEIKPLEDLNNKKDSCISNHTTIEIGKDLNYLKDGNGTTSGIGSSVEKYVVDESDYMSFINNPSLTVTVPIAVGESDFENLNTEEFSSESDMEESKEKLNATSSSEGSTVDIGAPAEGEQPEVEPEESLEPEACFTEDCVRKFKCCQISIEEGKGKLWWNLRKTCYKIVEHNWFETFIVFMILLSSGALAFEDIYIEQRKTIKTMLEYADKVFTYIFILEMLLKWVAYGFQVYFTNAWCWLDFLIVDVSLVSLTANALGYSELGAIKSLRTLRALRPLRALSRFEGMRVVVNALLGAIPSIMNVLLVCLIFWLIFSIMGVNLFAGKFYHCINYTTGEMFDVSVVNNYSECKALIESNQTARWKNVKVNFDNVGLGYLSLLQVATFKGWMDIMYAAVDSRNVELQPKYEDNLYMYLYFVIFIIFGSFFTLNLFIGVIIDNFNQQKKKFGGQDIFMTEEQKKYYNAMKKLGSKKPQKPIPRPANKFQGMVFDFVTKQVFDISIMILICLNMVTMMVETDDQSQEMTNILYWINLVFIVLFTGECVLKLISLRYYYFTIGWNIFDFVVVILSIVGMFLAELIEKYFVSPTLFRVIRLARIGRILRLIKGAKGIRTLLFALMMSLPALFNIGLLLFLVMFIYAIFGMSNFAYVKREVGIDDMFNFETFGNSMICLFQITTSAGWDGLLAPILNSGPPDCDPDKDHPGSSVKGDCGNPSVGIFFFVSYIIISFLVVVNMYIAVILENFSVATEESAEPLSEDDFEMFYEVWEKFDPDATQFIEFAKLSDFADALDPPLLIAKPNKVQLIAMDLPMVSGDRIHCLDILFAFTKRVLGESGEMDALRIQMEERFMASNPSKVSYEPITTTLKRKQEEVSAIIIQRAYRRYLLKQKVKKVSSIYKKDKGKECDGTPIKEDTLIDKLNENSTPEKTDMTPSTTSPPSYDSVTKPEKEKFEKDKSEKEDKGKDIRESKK
T1 sequence (Q9NY46 whole entry, looked up, other chains not shown): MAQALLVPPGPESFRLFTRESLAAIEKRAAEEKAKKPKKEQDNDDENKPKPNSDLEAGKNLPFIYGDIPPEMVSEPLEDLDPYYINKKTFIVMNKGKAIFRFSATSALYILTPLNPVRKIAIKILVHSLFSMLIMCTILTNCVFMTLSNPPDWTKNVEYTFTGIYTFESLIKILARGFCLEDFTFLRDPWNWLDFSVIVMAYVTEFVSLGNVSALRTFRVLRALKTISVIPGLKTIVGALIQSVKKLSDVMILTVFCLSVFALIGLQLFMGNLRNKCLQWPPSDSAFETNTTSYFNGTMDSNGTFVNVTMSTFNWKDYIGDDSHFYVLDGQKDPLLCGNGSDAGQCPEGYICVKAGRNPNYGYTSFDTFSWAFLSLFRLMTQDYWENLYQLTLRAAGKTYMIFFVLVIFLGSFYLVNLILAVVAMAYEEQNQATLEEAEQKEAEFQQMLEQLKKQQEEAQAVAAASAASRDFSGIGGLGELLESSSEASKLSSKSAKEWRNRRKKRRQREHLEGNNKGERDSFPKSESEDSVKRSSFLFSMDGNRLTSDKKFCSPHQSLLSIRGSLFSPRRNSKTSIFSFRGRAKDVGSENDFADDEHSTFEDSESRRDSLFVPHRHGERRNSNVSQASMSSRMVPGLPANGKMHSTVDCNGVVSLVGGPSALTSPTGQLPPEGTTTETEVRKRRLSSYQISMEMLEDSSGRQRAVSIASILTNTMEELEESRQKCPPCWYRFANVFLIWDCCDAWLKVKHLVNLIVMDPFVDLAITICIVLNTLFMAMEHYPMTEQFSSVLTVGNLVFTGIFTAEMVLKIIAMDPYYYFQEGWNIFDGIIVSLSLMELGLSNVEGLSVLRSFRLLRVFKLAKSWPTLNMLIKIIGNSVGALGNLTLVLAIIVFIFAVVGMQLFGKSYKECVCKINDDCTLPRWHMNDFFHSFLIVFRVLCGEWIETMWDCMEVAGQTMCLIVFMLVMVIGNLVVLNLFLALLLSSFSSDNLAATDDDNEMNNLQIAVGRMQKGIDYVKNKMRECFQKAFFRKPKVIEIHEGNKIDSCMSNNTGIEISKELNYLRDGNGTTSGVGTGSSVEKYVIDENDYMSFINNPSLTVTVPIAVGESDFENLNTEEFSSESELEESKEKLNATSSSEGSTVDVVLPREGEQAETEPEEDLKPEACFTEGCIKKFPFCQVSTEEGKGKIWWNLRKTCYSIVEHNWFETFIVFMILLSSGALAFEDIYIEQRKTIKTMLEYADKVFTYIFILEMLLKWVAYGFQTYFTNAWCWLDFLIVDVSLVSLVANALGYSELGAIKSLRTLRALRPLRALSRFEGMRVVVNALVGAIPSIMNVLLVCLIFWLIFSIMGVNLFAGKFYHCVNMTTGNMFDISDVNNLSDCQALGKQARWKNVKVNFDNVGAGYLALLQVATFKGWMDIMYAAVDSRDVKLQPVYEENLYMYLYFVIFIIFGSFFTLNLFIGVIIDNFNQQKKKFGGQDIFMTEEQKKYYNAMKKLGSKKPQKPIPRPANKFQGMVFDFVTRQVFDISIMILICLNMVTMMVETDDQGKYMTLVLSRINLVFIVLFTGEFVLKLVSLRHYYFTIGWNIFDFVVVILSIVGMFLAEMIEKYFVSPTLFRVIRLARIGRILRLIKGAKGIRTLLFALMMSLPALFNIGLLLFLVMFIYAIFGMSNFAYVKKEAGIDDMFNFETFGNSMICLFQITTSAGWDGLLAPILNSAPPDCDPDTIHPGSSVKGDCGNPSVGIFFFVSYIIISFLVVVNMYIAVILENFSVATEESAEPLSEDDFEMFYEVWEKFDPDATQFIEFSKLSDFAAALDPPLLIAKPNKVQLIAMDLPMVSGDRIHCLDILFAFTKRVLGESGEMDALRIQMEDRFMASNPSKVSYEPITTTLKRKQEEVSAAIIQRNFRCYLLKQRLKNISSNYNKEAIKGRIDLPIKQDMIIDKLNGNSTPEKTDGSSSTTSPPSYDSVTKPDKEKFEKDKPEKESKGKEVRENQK

As for `CC(C)NCC(O)c1ccc(NS(C)(=O)=O)cc1` (configuration not stated), the inhibition (commonly the change of the read-out against control, counted positive when it falls) in assay [1] worked out at 4.6%.
Turning to `CCCC(C)C1(CC)C(=O)NC(=O)NC1=O` (configuration not stated), the inhibition in assay [2] amounted to 1.2%; in assay [1], 7.6%.
The like results for `CCCCOC(=O)c1ccc(N)cc1` were, in that order, 7% and 36.8%.
The like results for `CCN(CC)CCCCCCCCOC(=O)c1cc(C)c(C)c(C)c1` were, in that order, 3.4% and 21.6%.
With `CCN(CC)CCNC(=O)c1ccc(N)cc1`, the inhibition amounted to 7.8% in assay [2] and 22.5% in assay [1].
The like results for `CCOC(=O)c1cnc2c(cnn2CC)c1NN=C(C)C` were, in that order, 8.3% and 20.1%.
`CC[C@@H](CO)NC(=O)[C@@H]1C=C2c3cccc4c3c(cn4C)C[C@H]2N(C)C1` gave an inhibition in assay [1] of 17.8%.
`CN(C)CCCN1c2ccccc2[S+]([O-])c2ccc(Cl)cc21` (configuration not stated): the inhibition in assay [2] turned out to be 18%; in assay [1], 69.1%.
The like results for `CN/C(=N\CCSCc1nc[nH]c1C)NC#N` were, in that order, 0% and 4.1%.
Consider `CN1CC[C@]23c4c5ccc(O)c4O[C@H]2[C@@H](O)C=C[C@H]3[C@H]1C5`, for which the inhibition in assay [1] is 5.3%.
Regarding `CN1CCc2cc3c(cc2[C@H]1[C@@H]1OC(=O)c2c1ccc1c2OCO1)OCO3`, the inhibition in assay [1] came to 1.8%.
With `CNC1=Nc2ccc(Cl)cc2C(c2ccccc2)=[N+]([O-])C1`, the inhibition in assay [2] is 4.4%; in assay [1], 35%.
Regarding `COc1ccc(C2C(=O)c3ccccc3C2=O)cc1`, the inhibition was determined as 1.3% in assay [2] and 0% in assay [1].
The like results for `COc1ccc(Cc2nccc3cc(OC)c(OC)cc23)cc1OC` were, in that order, 11% and 56%.
The like results for `COc1ccc2c(c1)c(CC(=O)O)c(C)n2C(=O)c1ccc(Cl)cc1` were, in that order, 3.3% and 11.2%.
`C[C@@H]1O[C@H](n2cnc3c(N)ncnc32)C[C@H]1O` registered an inhibition in assay [1] of 3.5%.
As for `C[C@]12CC[C@@H]3c4ccc(O)cc4CC[C@H]3[C@@H]1CC[C@@H]2O`, the values for the inhibition in assay [2] and in assay [1] were 17.8% and 53.3%, respectively.
The like results for `Cn1c(=O)c2nc(-c3ccc(S(=O)(=O)O)cc3)[nH]c2n(C)c1=O` were, in that order, 1.6% and 2.9%.
The like results for `Nc1nc(Cl)nc2c1ncn2[C@@H]1O[C@H](CO)[C@@H](O)[C@H]1O` were, in that order, 1.3% and 3.5%.
The like results for `O=c1n(CCCN2CCN(c3cccc(Cl)c3)CC2)nc2ccccn12` were, in that order, 26.2% and 79.6%.
As to `CCOC(=O)C1=C(C)NC(C)=C(C(=O)OC)C1c1cccc(Cl)c1Cl` (configuration not stated) [FELODIPINE], in assay [3], the IC50 (in general, the concentration needed to halve the response being measured) worked out at 37 µM. In assay [2], this compound gave an inhibition of 20.1%.
The like results for `CN(C)C(=O)C(CCN1CCC(O)(c2ccc(Cl)c(C(F)(F)F)c2)CC1)(c1ccccc1)c1ccccc1` [FLUPERAMIDE] were, in that order, 0.28 µM and 100%.
The like results for `OCCN1CCN(CCCN2c3ccccc3Sc3ccc(C(F)(F)F)cc32)CC1` [FLUPHENAZINE] were, in that order, 3.7 µM and 72.8%.
The like results for `COc1ccc(CCN(C)CCCC(C#N)(c2cc(OC)c(OC)c(OC)c2)C(C)C)cc1OC` (configuration not stated) [GALLOPAMIL] were, in that order, 3.6 µM and 67.1%.
In assay [3], `COc1cc(C(=O)OCCCN(C)CCN(C)CCCOC(=O)c2cc(OC)c(OC)c(OC)c2)cc(OC)c1OC` [HEXOBENDINE] yielded an IC50 of 1.4 µM. Moreover, the inhibition in assay [2] amounted to 77.2%.
The like results for `CC(CNC1CCCCC1)OC(=O)c1ccccc1` (configuration not stated) [HEXYLCAINE] were, in that order, 7 µM and 54.9%.
The like results for `OCCOCCN1CCN(C(c2ccccc2)c2ccc(Cl)cc2)CC1` (configuration not stated) [HYDROXYZINE] were, in that order, less than 10 µM and 73.9%.
In assay [3], `CN(C)CCCN1c2ccccc2CCc2ccccc21` [IMIPRAMINE] yielded an IC50 of 3.6 µM. In assay [2], this compound showed an inhibition of 72.7%.
In assay [3], `CC(C)Cn1c(=O)n(C)c(=O)c2nc[nH]c21` [ISOBUTYLMETHYLXANTHINE] yielded an IC50 of 1.8 µM. This compound also yielded an inhibition in assay [2] of 0.9%.
The like results for `CC(C)NC[C@H](O)COc1cccc2ccccc12` [LEVOPROPRANOLOL] were, in that order, 13 µM and 42.6%.
`CN1CC[C@]23CCCC[C@H]2[C@H]1Cc1ccc(O)cc13` [LEVORPHANOL] came in with an IC50 in assay [3] of 25 µM. For the same compound, the inhibition in assay [2] amounted to 33%.
The like results for `CN(C)C(=O)C(CCN1CCC(O)(c2ccc(Cl)cc2)CC1)(c1ccccc1)c1ccccc1` [LOPERAMIDE] were, in that order, 0.27 µM and 100%.
The like results for `CCCNC(C)(C)COC(=O)c1ccccc1` [MEPRYLCAINE] were, in that order, 7.6 µM and 57.6%.
The like results for `CN1CCN2c3ccccc3Cc3ccccc3C2C1` (configuration not stated) [MIANSERIN] were, in that order, 5.5 µM and 57.4%.
`Cl.NCCCCCCNS(=O)(=O)c1cccc2c(Cl)cccc12` [N-AMINOHEXYL-5-CHLORO-1-NAPTHALENESULFONAMIDE HYDROCHLORIDE] gave an IC50 in assay [3] of 12 µM. In addition, in assay [2], the inhibition was found to be 46.8%.
The like results for `COC(=O)C1=C(C)NC(C)=C(C(=O)OCC(C)C)C1c1ccccc1[N+](=O)[O-]` (configuration not stated) [NISOLDIPINE] were, in that order, 26 µM and 25.9%.
The like results for `CCOC(=O)C1=C(C)NC(C)=C(C(=O)OC)C1c1cccc([N+](=O)[O-])c1` (configuration not stated) [NITRENDIPINE] were, in that order, 36 µM and 23.1%.
The like results for `CNCCC=C1c2ccccc2CCc2ccccc21` [NORTRIPTYLINE] were, in that order, less than 10 µM and 69.4%.
Regarding `CN(C(=O)CN(CCO)CC(=O)N(C)C(C)(C)Cc1ccccc1)C(C)(C)Cc1ccccc1` [OXETHAZAINE], the half-inhibitory concentration (IC50) in assay [3] stood at 2.3 µM. Further, in assay [2], the inhibition worked out at 83.9%.
Turning to `CCOc1ccc(C(=O)OCCN(CC)CC)cc1` [PARETHOXYCAINE], the IC50 in assay [3] was 24 µM. Further, in assay [2], the inhibition came to 33.2%.
The like results for `CCOc1ccc(/N=C(\C)Nc2ccc(OCC)cc2)cc1` [PHENACAINE] were, in that order, 1.7 µM and 81.1%.
`CN(C)CCC(c1ccccc1)c1ccccn1` (configuration not stated) [PHENIRAMINE] showed an IC50 in assay [3] of 33 µM. Further, the inhibition in assay [2] came out at 24.9%.
The like results for `Cc1ccc(N(CC2=NCCN2)c2cccc(O)c2)cc1` [PHENTOLAMINE] were, in that order, 8.4 µM and 54.6%.
The like results for `C=C(C)[C@@H]1[C@H]2OC(=O)[C@@H]1[C@]1(O)C[C@H]3OC34C(=O)O[C@H]2[C@@]41C.CC(C)(O)[C@@H]1[C@H]2OC(=O)[C@@H]1[C@]1(O)C[C@H]3OC34C(=O)O[C@H]2[C@@]41C` (some centres not stated) [PICROTOXIN] were, in that order, 700 µM and 22.7%.
The like results for `CC1CCCCN1CCCOC(=O)c1ccccc1` (configuration not stated) [PIPEROCAINE] were, in that order, 13 µM and 43.6%.
`COc1cc2nc(N3CCN(C(=O)c4ccco4)CC3)nc(N)c2cc1OC` [PRAZOSIN]: the IC50 in assay [3] turned out to be 10.1 µM. In addition, in assay [2], the inhibition came out at 58.6%.
Turning to `CC(Cc1ccccc1)NCCC(c1ccccc1)c1ccccc1` (configuration not stated) [PRENYLAMINE], in assay [3], the half-inhibitory concentration (IC50) was 0.3 µM. In assay [2], this compound displayed an inhibition of 98.8%.
The like results for `CCCC(C(=O)OCCN(CC)CC)(c1ccccc1)c1ccccc1` [PROADIFEN] were, in that order, 4.2 µM and 75.4%.
The like results for `CCN(CC)CCOC(=O)c1ccc(N)cc1` [PROCAINE] were, in that order, 110 µM and 47.3%.
Consider `CN(C)CCCN1c2ccccc2Sc2ccccc21` [PROMAZINE], for which the IC50 in assay [3] was 5.4 µM. Further, the inhibition in assay [2] stood at 65.3%.
In turn, `CC(CN1c2ccccc2Sc2ccccc21)N(C)C` (configuration not stated) [PROMETHAZINE] had an IC50 in assay [3] of 6.9 µM. The same compound returned an inhibition in assay [2] of 61%.
The like results for `CCCOc1ccc(C(=O)OCCN(CC)CC)cc1N` [PROPARACAINE] were, in that order, 1.9 µM and 79.9%.
The like results for `CCCOc1cc(N)ccc1C(=O)OCCN(CC)CC` [PROPOXYCAINE] were, in that order, 24 µM and 30%.
The like results for `CNCCCC1c2ccccc2C=Cc2ccccc21` [PROTRIPTYLINE] were, in that order, less than 10 µM and 70.3%.
For the compound `CCN(CC)CCCC(C)Nc1c2ccc(Cl)cc2nc2ccc(OC)cc12` (configuration not stated) [QUINACRINE], the IC50 in assay [3] worked out at 3.3 µM. This compound had an inhibition in assay [2] of 73.3%.
The like results for `COC(=O)[C@H]1[C@H]2C[C@@H]3c4[nH]c5cc(OC)ccc5c4CCN3C[C@H]2C[C@@H](OC(=O)c2cc(OC)c(OC)c(OC)c2)[C@@H]1OC` [RESERPINE] were, in that order, 1.6 µM and 100%.
As for `O=C1C[C@@H]2OCC=C3CN4CC[C@]56c7ccccc7N1[C@H]5[C@H]2[C@H]3C[C@H]46` [STRYCHNINE], the IC50 in assay [3] came out at 21 µM. The inhibition in assay [2] was found to be 35.7%.
The like results for `CSc1ccc2c(c1)N(CCC1CCCCN1C)c1ccccc1S2` (configuration not stated) [THIORIDAZINE] were, in that order, 6.5 µM and 63.5%.
The like results for `CN1CCN(CCCN2c3ccccc3Sc3ccc(C(F)(F)F)cc32)CC1` [TRIFLUOPERAZINE] were, in that order, 5 µM and 79.8%.
The like results for `COC(=O)[C@@H]1[C@H]2C[C@H]3c4[nH]c5ccccc5c4CCN3C[C@@H]2CC[C@@H]1O` [YOHIMBINE] were, in that order, 33 µM and 25.6%.
Compound `Cc1ccc(OCC(O)C(C)NC(C)C)c2c1CCC2` (configuration not stated) [ZENIDOLOL] returned an IC50 in assay [3] of less than 10 µM. In addition, the inhibition in assay [2] was 64.2%.
